Test system: Akt phosphorylation induced by IGF-1R
Experiment: Western blot analysis of Akt phosphorylation induced by IGF-1 in HT-29 cells
Assay type: cell-based, Human
Details: for Levels of phosphorylated AKT in treated cells (pAKT/actin): HT-29 cells, IGF-1; for p-AKT relative to levels with 0.1 nM compound: Table B2 lower part; for Normalized phosphorylated AKT (relative to actin) levels relative to 0.1 nM compound treatment: Table B2 upper part
Procedure: Inhibition of Akt phosphorylation induced by IGF-1R was studied by western blot analysis. Human colon carcinoma HT-29 cells were seeded at a density of 8×10^4 cells/well in a 24-well plate and grown in DME/F12 media containing 10% FBS for 24 h. The cells were then depleted of serum by incubation in DME/F12 media lacking FBS for 24 h. […] […] Lysed cells were centrifuged at 13,000 rpm for 15 min and the protein concentration soluble fraction (supernatant) of each sample was determined using a BCA protein assay (Pierce).

Row | Compound | Levels of phosphorylated AKT in treated cells (pAKT/actin) (0.1 nM compound) | p-AKT relative to levels with 0.1 nM compound (0.1 nM) | Normalized phosphorylated AKT (relative to actin) levels relative to 0.1 nM compound treatment (0.1 nM) | Levels of phosphorylated AKT in treated cells (pAKT/actin) (1 nM compound) | p-AKT relative to levels with 0.1 nM compound (1 nM) | Normalized phosphorylated AKT (relative to actin) levels relative to 0.1 nM compound treatment (1 nM) | Levels of phosphorylated AKT in treated cells (pAKT/actin) (10 nM compound) | p-AKT relative to levels with 0.1 nM compound (10 nM) | Normalized phosphorylated AKT (relative to actin) levels relative to 0.1 nM compound treatment (10 nM) | Levels of phosphorylated AKT in treated cells (pAKT/actin) (100 nM compound) | p-AKT relative to levels with 0.1 nM compound (100 nM) | Normalized phosphorylated AKT (relative to actin) levels relative to 0.1 nM compound treatment (100 nM)
1 | O=C(Nc1cccnc1)C1CCCN1c1nc2c(c(Nc3cc(C4CC4)[nH]n3)n1)CCC2 (single isomer, unassigned) [Compound 3b, 1-(4-(5-cyclopropyl-1H-pyrazol-3-ylamino)-6,7-dihydro-5H-cyclopenta[d]pyrimidin-2-yl)-N-(pyridin-3-yl)pyrrolidine-2-carboxamide] | 2.25 | 1.0 | 1.0 | 1.70 | 0.8 | 0.8 | 0.57 | 0.3 | 0.3 | 0.02 | 0.0 | 0.0
2 | O=C(Nc1ccc(F)nc1)C1CCCN1c1nc2c(c(Nc3cc(C4CC4)[nH]n3)n1)CCCC2 (single isomer, unassigned) [Compound 14a, 1-(4-(5-cyclopropyl-1H-pyrazol-3-ylamino)-5,6,7,8-tetrahydroquinazolin-2-yl)-N-(6-fluoropyridin-3-yl)pyrrolidine-2-carboxamide] | 0.73 | 1.0 | 1.0 | 0.51 | 0.7 | 0.7 | 0.43 | 0.6 | 0.6 | 0.35 | 0.5 | 0.5
3 | O=C(Nc1cnccn1)C1CCCN1c1nc2c(c(Nc3cc(C4CC4)[nH]n3)n1)CCC2 (racemic) [Compound 6, 1-(4-(3-cyclopropyl-1H-pyrazol-5-ylamino)-6,7-dihydro-5H-cyclopenta[d]pyrimidin-2-yl)-N-(pyrazin-2-yl)pyrrolidine-2-carboxamide] | 1.54 | 1.0 | 1.0 | 0.22 | 0.1 | 0.1 | 0.01 | 0.0 | 0.0 | 0.01 | 0.0 | 0.0
4 | O=C(Nc1cccnc1)C1CCCN1c1nc2c(c(Nc3cc(C4CC4)[nH]n3)n1)CCC2 (single isomer, unassigned) [Compound 3a, 1-(4-(5-cyclopropyl-1H-pyrazol-3-ylamino)-6,7-dihydro-5H-cyclopenta[d]pyrimidin-2-yl)-N-(pyridin-3-yl)pyrrolidine-2-carboxamide] | 2.64 | 1.0 | 1.0 | 1.68 | 0.6 | 0.6 | 1.86 | 0.7 | 0.7 | 2.19 | 0.8 | 0.8
5 | O=C(Nc1ccc(F)nc1)C1CCCCN1c1nc2c(c(Nc3cc(C4CC4)[nH]n3)n1)CCC2 (racemic) [Compound 9, 1-(4-(3-cyclopropyl-1H-pyrazol-5-ylamino)-6,7-dihydro-5H-cyclopenta[d]pyrimidin-2-yl)-N-(6-fluoropyridin-3-yl)piperidine-2-carboxamide] | 0.67 | 1.0 | 1.0 | 0.71 | 1.1 | 1.1 | 0.07 | 0.1 | 0.1 | 0.00 | 0.0 | 0.0
6 | O=C(Nc1ccc(F)nc1)C1CCCCN1c1nc2c(c(Nc3cc(C4CCCC4)[nH]n3)n1)CCC2 (single isomer, unassigned) [Compound 17a, 1-(4-(5-cyclopentyl-1H-pyrazol-3-ylamino)-6,7-dihydro-5H-cyclopenta[d]pyrimidin-2-yl)-N-(6-fluoropyridin-3-yl)piperidine-2-carboxamide] | 0.89 | 1.0 | 1.0 | 1.22 | 1.4 | 1.4 | 1.01 | 1.1 | 1.1 | 1.08 | 1.2 | 1.2
7 | O=C(Nc1ccc(F)nc1)C1CCCCN1c1nc2c(c(Nc3cc(C4CC4)[nH]n3)n1)CCC2 (single isomer, unassigned) [Compound 9b, 1-(4-(3-cyclopropyl-1H-pyrazol-5-ylamino)-6,7-dihydro-5H-cyclopenta[d]pyrimidin-2-yl)-N-(6-fluoropyridin-3-yl)piperidine-2-carboxamide] | 1.46 | 1.0 | 1.0 | 1.55 | 1.1 | 1.1 | 1.18 | 0.8 | 0.8 | 0.78 | 0.5 | 0.5
8 | O=C(Nc1ccc(F)nc1)C1CCCCN1c1nc2c(c(Nc3cc(C4CC4)[nH]n3)n1)CCC2 (single isomer, unassigned) [Compound 9a, 1-(4-(3-cyclopropyl-1H-pyrazol-5-ylamino)-6,7-dihydro-5H-cyclopenta[d]pyrimidin-2-yl)-N-(6-fluoropyridin-3-yl)piperidine-2-carboxamide] | 1.24 | 1.0 | 1.0 | 1.26 | 1.0 | 1.0 | 0.53 | 0.4 | 0.4 | 0.02 | 0.0 | 0.0
9 | O=C(Nc1ccc(F)nc1)C1CCCN1c1nc2c(c(Nc3cc(C4CC4)[nH]n3)n1)CCC2 (racemic) [Compound 2, 1-(4-(5-cyclopropyl-1H-pyrazol-3-ylamino)-6,7-dihydro-5H-cyclopenta[d]pyrimidin-2-yl)-N-(6-fluoropyridin-3-yl)pyrrolidine-2-carboxamide] | 1.04 | 1.0 | 1.0 | 0.91 | 0.9 | 0.9 | 0.07 | 0.1 | 0.1 | 0.00 | 0.0 | 0.0
10 | CC1(O)CC(c2nc(-c3ccc4ccc(-c5ccccc5)nc4c3)c3c(N)nccn23)C1 (stereo not shown) [OSI-906, 3-[8-Amino-1-(2-phenyl-7-quinolyl)imidazo[1,5-a]pyrazin-3-yl]-1-methyl-cyclobutanol, reference compound] | 1.06 | – | – | 0.85 | – | – | 1.58 | – | – | 0.40 | – | –
